Measured values as given in patent US9073899B2, “Solid forms of dabigatran etexilate mesylate and processes for their preparation” (ESTEVE QUÍMICA, S.A., priority 2012, dated 2015).
“Also recorded” adds a separate entry of the source. Structures can show the parent of a compound that is named as a salt.

Key:
Assay type in all cases: physicochemical
[1] = Solvent mediated transformation of mixtures of forms in 2-propanol, solid form by powder XRD; conditions: 2-propanol 0.6 mL, ambient temperature, orbital agitator
Protocol: (§1) Powder diffraction patterns were acquired using a PANalytical, X'Pert diffractometer using CuKalpha-radiation. The system was configured in theta-theta, transmission geometry equipped with a focusing X-ray mirror and PIXcel detector.
(§2) Dabigatran etexilate mesylate, a mixture of Form I, 17 mg and Form A, 15 mg, was suspended in 2-propanol (0.6 mL) and the mixture agitated at ambient temperature using an orbital agitator for 64 hours. The mixture was filtered, dried under vacuum and analysed to be purely Form A of dabigatran etexilate mesylate as determined by powder XRD.
as §2, with “II, 10” for “I, 17”, “7 days.” for “64 hours.”

[2] = Solubility in acetonitrile (50 mg added to 1 mL with stirring); conditions: for solubility observation (in words): 24° C. / room temperature (20-25° C.)
Protocol: (§3) Dabigatran etexilate mesylate, Form I, 50 mg, was added to acetonitrile (1 mL) with stirring, at 24° C. The product was not soluble under these conditions. The mixture was stirred for 48 hours, filtered and analysed to be Form A of dabigatran etexilate mesylate as determined by powder XRD.
(§4) The solubility of the amorphous form is therefore >50 mg/mL. After approximately 5 minutes a solid crystallized. The mixture was stirred for 48 hours, filtered and analysed to be Form A of dabigatran etexilate mesylate as determined by powder XRD.
(§5) Dabigatran etexilate mesylate, Form A, 50 mg, was added to acetonitrile (1 mL) with stirring, at 24° C. The product was not soluble under these conditions. The mixture was stirred for 48 hours, filtered and analysed to be Form A of dabigatran etexilate mesylate as determined by powder XRD.

[3] = Stability assay: slurrying in acetonitrile, solid form by powder XRD; conditions: acetonitrile 1 mL, 50 mg, 24° C. (room temperature), stirred 48 hours
Protocol: as §1, §3, §4, §5

Compound | solubility observation (in words) ([2]; 50 mg in 1 mL acetonitrile) | solid form after slurrying (powder XRD) [3] | other results
CCCCCCOC(=O)/N=C(\N)c1ccc(NCc2nc3cc(C(=O)N(CCC(=O)OCC)c4ccccn4)ccc3n2C)cc1 [mixture of Form II and Form A, dabigatran etexilate mesylate] | – | – | solid form after slurrying mixture of forms (powder XRD) ([1]; 7 days): purely Form A; also recorded: converted entirely into Form A
CCCCCCOC(=O)/N=C(\N)c1ccc(NCc2nc3cc(C(=O)N(CCC(=O)OCC)c4ccccn4)ccc3n2C)cc1 [mixture of Form I and Form A, dabigatran etexilate mesylate] | – | – | solid form after slurrying mixture of forms (powder XRD) ([1]; 64 hours): purely Form A; also recorded: converted entirely into Form A
CCCCCCOC(=O)NC(=N)c1ccc(NCc2nc3cc(C(=O)N(CCC(=O)OCC)c4ccccn4)ccc3n2C)cc1 [dabigatran etexilate mesylate Form I, dabigatran etexilate mesylate] | not soluble; also recorded: at least partly insoluble | converted entirely into Form A | –
CCCCCCOC(=O)NC(=N)c1ccc(NCc2nc3cc(C(=O)N(CCC(=O)OCC)c4ccccn4)ccc3n2C)cc1 [dabigatran etexilate mesylate Form A, dabigatran etexilate mesylate] | not soluble; also recorded: at least partly insoluble | Form A; also recorded: stable | –
CCCCCCOC(=O)NC(=N)c1ccc(NCc2nc3cc(C(=O)N(CCC(=O)OCC)c4ccccn4)ccc3n2C)cc1 [amorphous dabigatran etexilate mesylate, dabigatran etexilate mesylate] | complete dissolution almost immediately; also recorded: completely dissolved | Form A | time until a solid crystallized from the acetonitrile solution ([2]; 50 mg in 1 mL acetonitrile, 24° C., after complete dissolution): approximately 5 minutes; solubility ([2]; organic solvent or mixture, thermodynamic from solid, acetonitrile, 24° C., 50 mg in 1 mL): > 50 mg/mL
